According to patent US20130310355A1, “LOW TOXICITY TOPICAL ACTIVE AGENT DELIVERY SYSTEM” (YOUNG PHARMACEUTICALS, INC., priority 2009, published 2013):

Assay: Solubilization of retinol in cyclomethicone alone
Assay type: physicochemical
Conditions: retinol 0.1-0.2% w/v in cyclomethicone alone
Source text: Volatile organosiloxanes optionally are lightweight carriers that evaporate on application and thus have an elegant, light-weight “feel” on the skin. Volatile organosiloxanes, however, are typically limited in their ability to dissolve low polarity (i.e. usually greater than C7-C8)) organic compounds like retinoids. […] To address this issue vehicles were sought that would be both capable of creating clear solutions of active agent in a volatile organosiloxane carrier, but also have an appropriate evaporation rate in combination with the volatile organosiloxane when placed on the skin so as maintain the light-weight feel on the skin experienced by a user. A vehicle must also not promote unacceptable skin irritation when used at the concentration necessary in the composition.

With `CC1=C(/C=C/C(C)=C/C=C/C(C)=C/CO)C(C)(C)CCC1` [retinol] the Appearance of solution was “hazy solutions”.
